# Source: ChEMBL document CHEMBL5303573, “Mapping human microbiome drug metabolism by gut bacteria and their genes” (Nature, 2019)
# How the values were obtained:
# [1] = The drug is tested on Bacteroides fragilis strain: HMW610 for biotransformation. The drug concentrations were measured before and after a 12-h incubation by liquid-chromatography-coupled mass spectrometry (LC–MS); settings: 2 µM
# [2] = The drug is tested on Bacteroides sp. WH2 strain: WH2 for biotransformation. The drug concentrations were measured before and after a 12-h incubation by liquid-chromatography-coupled mass spectrometry (LC–MS); settings: bacteroides sp. wh2, 12 h, 2 µM
# [3] = The drug is tested on Edwardsiella tarda strain: ATCC23685 for biotransformation. The drug concentrations were measured before and after a 12-h incubation by liquid-chromatography-coupled mass spectrometry (LC–MS); settings: 2 µM
# [4] = The drug is tested on Collinsella intestinalis strain: DSM13280 for biotransformation. The drug concentrations were measured before and after a 12-h incubation by liquid-chromatography-coupled mass spectrometry (LC–MS); settings: 2 µM
# [5] = segatella copri, 12 h, 2 µM
# Description: The drug is tested on Prevotella copri strain: DSM18205 for biotransformation. The drug concentrations were measured before and after a 12-h incubation by liquid-chromatography-coupled mass spectrometry (LC–MS)
# [6] = bacteroides thetaiotaomicron, 12 h, 2 µM
# Description: The drug is tested on Bacteroides thetaiotaomicron strain: 3731 for biotransformation. The drug concentrations were measured before and after a 12-h incubation by liquid-chromatography-coupled mass spectrometry (LC–MS)
# [7] = The drug is tested on Blautia luti strain: DSM14534 for biotransformation. The drug concentrations were measured before and after a 12-h incubation by liquid-chromatography-coupled mass spectrometry (LC–MS); format: ADME; parameters: dose 2 uM, timepoint 0 vs 12 hours; settings: 2 µM
# [8] = The drug is tested on Bacteroides pectinophilus strain: ATCC43243 for biotransformation. The drug concentrations were measured before and after a 12-h incubation by liquid-chromatography-coupled mass spectrometry (LC–MS); settings: 2 µM
# [9] = The drug is tested on Anaerotruncus colihominis strain: DSM17241 for biotransformation. The drug concentrations were measured before and after a 12-h incubation by liquid-chromatography-coupled mass spectrometry (LC–MS); settings: 2 µM
# [10] = The drug is tested on Ruminococcus gnavus strain: ATCC29149 for biotransformation. The drug concentrations were measured before and after a 12-h incubation by liquid-chromatography-coupled mass spectrometry (LC–MS); settings: mediterraneibacter gnavus, 2 µM
# [11] = The drug is tested on Bacteroides dorei strain: DSM17855 for biotransformation. The drug concentrations were measured before and after a 12-h incubation by liquid-chromatography-coupled mass spectrometry (LC–MS); settings: phocaeicola dorei, 2 µM
# [12] = The drug is tested on Clostridium sp. strain: fecal isolate for biotransformation. The drug concentrations were measured before and after a 12-h incubation by liquid-chromatography-coupled mass spectrometry (LC–MS); settings: 2 µM
# [13] = bacteroides fragilis, 12 h, 2 µM
# Description: The drug is tested on Bacteroides fragilis strain: NCTC 9343 for biotransformation. The drug concentrations were measured before and after a 12-h incubation by liquid-chromatography-coupled mass spectrometry (LC–MS)
# [14] = The drug is tested on Alistipes indistinctus strain: DSM22520 for biotransformation. The drug concentrations were measured before and after a 12-h incubation by liquid-chromatography-coupled mass spectrometry (LC–MS); settings: 2 µM
# [15] = bacteroides intestinalis, 12 h, 2 µM
# Description: The drug is tested on Bacteroides intestinalis strain: DSM17393 for biotransformation. The drug concentrations were measured before and after a 12-h incubation by liquid-chromatography-coupled mass spectrometry (LC–MS)
# [16] = The drug is tested on Bacteroides cellulosilyticus strain: DSM14838 for biotransformation. The drug concentrations were measured before and after a 12-h incubation by liquid-chromatography-coupled mass spectrometry (LC–MS); settings: 2 µM
# [17] = The drug is tested on Providencia stuartii strain: ATCC25827 for biotransformation. The drug concentrations were measured before and after a 12-h incubation by liquid-chromatography-coupled mass spectrometry (LC–MS); settings: 2 µM
# [18] = The drug is tested on Bifidobacterium longum subsp. Infantis strain: CCUG52486 for biotransformation. The drug concentrations were measured before and after a 12-h incubation by liquid-chromatography-coupled mass spectrometry (LC–MS); settings: 2 µM
# [19] = anaerostipes sp., 12 h, 2 µM
# Description: The drug is tested on Anaerostipes sp. strain: fecal isolate for biotransformation. The drug concentrations were measured before and after a 12-h incubation by liquid-chromatography-coupled mass spectrometry (LC–MS)
# [20] = parabacteroides distasonis, 12 h, 2 µM
# Description: The drug is tested on Parabacteroides distasonis strain: ATCC8503 for biotransformation. The drug concentrations were measured before and after a 12-h incubation by liquid-chromatography-coupled mass spectrometry (LC–MS)
SMILES,Bacterial Biotransformation [1],Bacterial Biotransformation [2],Bacterial Biotransformation [3],Bacterial Biotransformation [4],Bacterial Biotransformation [5],Bacterial Biotransformation [6],Bacterial Biotransformation [7],Bacterial Biotransformation [8],Bacterial Biotransformation [9],Bacterial Biotransformation [10],Bacterial Biotransformation [11],Bacterial Biotransformation [12],Bacterial Biotransformation [13],Bacterial Biotransformation [14],Bacterial Biotransformation [15],Bacterial Biotransformation [16],Bacterial Biotransformation [17],Bacterial Biotransformation [18],Bacterial Biotransformation [19],Bacterial Biotransformation [20]
COc1cc2nc(N3CCN(C(=O)C4COc5ccccc5O4)CC3)nc(N)c2cc1OC.CS(=O)(=O)O (stereo not drawn) [DOXAZOSIN MESYLATE],Compound NOT metabolized,Compound NOT metabolized,Compound NOT metabolized,Compound NOT metabolized,Compound metabolized,Compound NOT metabolized,Compound NOT metabolized,Compound NOT metabolized,Compound NOT metabolized,Compound NOT metabolized,Compound metabolized,Compound metabolized,Compound NOT metabolized,Compound metabolized,Compound NOT metabolized,Compound NOT metabolized,Compound NOT metabolized,,,
O=C1NCC2(CCN(CCc3ccccc3)CC2)O1 [FENSPIRIDE],Compound metabolized,Compound NOT metabolized,Compound NOT metabolized,Compound NOT metabolized,Compound metabolized,Compound metabolized,Compound NOT metabolized,Compound NOT metabolized,Compound NOT metabolized,Compound NOT metabolized,Compound metabolized,Compound NOT metabolized,Compound metabolized,Compound NOT metabolized,,Compound NOT metabolized,Compound NOT metabolized,Compound NOT metabolized,Compound NOT metabolized,
CC(C)(C(=O)O)c1ccc(C(O)CCCN2CCC(C(O)(c3ccccc3)c3ccccc3)CC2)cc1 (stereo not drawn) [FEXOFENADINE],Compound NOT metabolized,Compound NOT metabolized,Compound NOT metabolized,Compound NOT metabolized,Compound NOT metabolized,Compound NOT metabolized,Compound NOT metabolized,Compound NOT metabolized,Compound NOT metabolized,Compound NOT metabolized,Compound NOT metabolized,Compound NOT metabolized,Compound NOT metabolized,Compound NOT metabolized,Compound NOT metabolized,Compound NOT metabolized,Compound NOT metabolized,Compound NOT metabolized,Compound NOT metabolized,
COCCCC/C(=N\OCCN)c1ccc(C(F)(F)F)cc1.O=C(O)/C=C\C(=O)O [FLUVOXAMINE MALEATE],,Compound NOT metabolized,Compound NOT metabolized,,,Compound metabolized,Compound NOT metabolized,Compound metabolized,Compound NOT metabolized,Compound NOT metabolized,Compound NOT metabolized,Compound metabolized,,Compound NOT metabolized,Compound NOT metabolized,Compound NOT metabolized,Compound NOT metabolized,Compound NOT metabolized,Compound NOT metabolized,
COc1ccc2c3c1O[C@H]1C[C@@H](O)C=C[C@@]31CCN(C)C2 [GALANTAMINE],Compound metabolized,Compound metabolized,Compound NOT metabolized,Compound NOT metabolized,Compound metabolized,Compound metabolized,Compound NOT metabolized,Compound NOT metabolized,Compound NOT metabolized,Compound NOT metabolized,Compound NOT metabolized,Compound NOT metabolized,,Compound metabolized,Compound NOT metabolized,Compound NOT metabolized,,,Compound metabolized,
Nc1nc(N)nc(-c2cc(Cl)ccc2Cl)n1.O=C(O)/C=C\C(=O)O [IRSOGLADINE MALEATE],Compound NOT metabolized,Compound NOT metabolized,Compound NOT metabolized,Compound NOT metabolized,Compound NOT metabolized,Compound NOT metabolized,Compound NOT metabolized,Compound NOT metabolized,Compound NOT metabolized,Compound NOT metabolized,Compound metabolized,Compound NOT metabolized,Compound NOT metabolized,Compound NOT metabolized,Compound NOT metabolized,Compound NOT metabolized,Compound NOT metabolized,,Compound NOT metabolized,
CN(C)C(=O)Oc1cccc([N+](C)(C)C)c1.[Br-] [NEOSTIGMINE BROMIDE],,Compound NOT metabolized,Compound NOT metabolized,Compound NOT metabolized,,Compound metabolized,Compound NOT metabolized,Compound NOT metabolized,Compound NOT metabolized,Compound NOT metabolized,Compound metabolized,Compound NOT metabolized,Compound metabolized,Compound NOT metabolized,Compound NOT metabolized,Compound NOT metabolized,Compound NOT metabolized,Compound NOT metabolized,Compound NOT metabolized,Compound NOT metabolized
CO[C@]12C[C@@H](COC(=O)c3cncc(Br)c3)CN(C)[C@@H]1Cc1cn(C)c3cccc2c13 [NICERGOLINE],,Compound NOT metabolized,Compound NOT metabolized,Compound NOT metabolized,Compound NOT metabolized,Compound NOT metabolized,Compound NOT metabolized,Compound NOT metabolized,Compound NOT metabolized,Compound NOT metabolized,Compound metabolized,Compound NOT metabolized,Compound NOT metabolized,Compound NOT metabolized,Compound NOT metabolized,Compound metabolized,Compound NOT metabolized,Compound NOT metabolized,Compound NOT metabolized,Compound NOT metabolized
CC(=O)CCCCn1c(=O)c2c(ncn2C)n(C)c1=O [PENTOXIFYLLINE],Compound NOT metabolized,Compound NOT metabolized,Compound NOT metabolized,Compound NOT metabolized,Compound NOT metabolized,Compound NOT metabolized,Compound NOT metabolized,,Compound NOT metabolized,Compound NOT metabolized,Compound NOT metabolized,Compound NOT metabolized,Compound NOT metabolized,Compound NOT metabolized,Compound NOT metabolized,Compound NOT metabolized,Compound NOT metabolized,Compound NOT metabolized,Compound NOT metabolized,
